Source: patent publication US20250339569A1, “CARBONIC ANHYDRASE IX LIGANDS” (priority 2021, published 2025)
Starred links: 1 amine or outer side, 2 acyl side, 3 side chain; linkers in the order of their positions; H or OH if unused. Positions of bridges follow the written chain, without caps; N, C: chain ends. Non-standard residues stand in square brackets, D forms with d. Residues, ends and D or L forms follow the SMILES beside them. *: point of attachment. NH(CH2)3NH(O2Oc(DOTA)) = O=C(O)CN1CCN(CC(=O)O)CCN(CC(=O)NCCOCCOCC(=O)NCCCN*)CCN(CC(=O)O)CC1; X62 = O=C(Nc1cccc(C[C@H](N[*:1])C(=O)[*:2])c1)c1c[nH]cn1; DOTA = O=C(O)CN1CCN(CC(=O)O)CCN(CC(=O)*)CCN(CC(=O)O)CC1; Phe(4-tBu) = CC(C)(C)c1ccc(C[C@H](N)C(=O)O)cc1; X7 = O=C([C@H](Cc1cccc(N[*:3])c1)N[*:1])[*:2]; Bip = N[C@@H](Cc1ccc(-c2ccccc2)cc1)C(=O)O; Dip = N[C@H](C(=O)O)C(c1ccccc1)c1ccccc1; Phe(4-NH2) = Nc1ccc(C[C@H](N)C(=O)O)cc1; X55 = O=C1Nc2ccc(C(=O)*)cc2S(=O)(=O)N1; mXylylene = c1cc(C[*:1])cc(C[*:2])c1; X36 = NS(=O)(=O)Cc1ccc(C(=O)*)cc1; X2 = O=C(CN1CCC(N[*:1])CC1)[*:2]; X65 = NS(=O)(=O)c1ccc(C(=O)*)cn1; tBuAla = CC(C)(C)C[C@H](N)C(=O)O; X1 = O=C(CN1CCN([*:1])CC1)[*:2]; Isonicotinoyl = O=C(c1ccncc1)*; αMeL = CC(C)C[C@](C)(N)C(=O)O; Pen = CC(C)(S)[C@H](N)C(=O)O; Dap = NC[C@H](N)C(=O)O; AEEA = NCCOCCOCC(=O)O; Sar = CNCC(=O)O

Each molecule was assayed against T1, CAIX-expressing human HT-29 colorectal cancer cells (Homo sapiens, UniProt Q16790) (assay: FACS binding assay (IC50 determination, competition with tracer 3BP-2776 or 3BP-4149)). Conditions: FACS binding assay, HT-29 cells, competition with tracer 3BP-2776 (10 nM, biotin-labeled), 4° C., 1 hour; read-out: pIC50 category (activity) (converted).
T1 construct: CAIX-expressing human HT-29 colorectal cancer cells; host or cells: HT-29 human colorectal cancer cells
Description: In order to determine binding of compounds according to the present invention to CAIX-expressing cells, a FACS binding assay was established.
CAIX-expressing human HT-29 colorectal cancer cells (DSMZ, RRID: CVCL_0320) were cultured in McCoys's 5A modified medium (Biochrom, #F1015) including 10% fetal calf serum (FCS), 2 mM L-glutamine, 100 U/ml penicillin and 100 μg/mL streptomycin. Cells were detached with Accutase (Biolegend, #423201) and washed in FACS buffer (PBS including 1% FCS). Cells were diluted in FACS buffer to a final concentration of 500.000 cells per ml. 200 μL of the cell suspension were transferred to a u-shaped non-binding 96-well plate (Greiner) and cells were washed in ice-cold FACS buffer.
When biotinylated compounds were used an additional incubation step with 1 μg/mL APC-Streptavidin (Miltenyi; #130-106-791) in 50 μL FACS buffer for 30 minutes on ice was performed.
Cells were washed twice with ice-cold FACS buffer and analyzed in an Attune NxT flow cytometer (Thermo Fisher). Median fluorescence intensities (MFI) of the APC/Cy5-channel were calculated by Attune NxT software. MFI values were plotted against peptide concentration and four parameter logistic (4PL) curve fitting and EC50/pEC50 or IC50/pIC50 calculations were performed using ActivityBase software.

IC50	SMILES
10 to 79.4 nM	CC(C)C[C@@H]1NC(=O)[C@H](Cc2cccc(NC(=O)c3c[nH]cn3)c2)NC(=O)[C@H](CC(=O)O)NC(=O)[C@H]2CCCN2C(=O)[C@H](CCC(=O)O)NC(=O)[C@@H](NC(=O)[C@H](Cc2ccc(O)cc2)NC(=O)[C@@H](NC(=O)CN2CCC(NC(=O)CN3CCN(CC(=O)O)CCN(CC(=O)O)CCN(CC(=O)O)CC3)CC2)C(C)C)CSCc2cccc(c2)CSC[C@@H](C(N)=O)NC(=O)[C@H](CO)NC(=O)[C@H](Cc2c[nH]c3ccccc23)NC(=O)[C@H]([C@@H](C)O)NC1=O [3BP-4240] ({DOTA}-[X2]VYCE[dP]D[X62]LTWSC-NH2; linker 4-13 via mXylylene)
< 10 nM	CC(C)C[C@@H]1NC(=O)[C@H](Cc2ccc(-c3ccccc3)cc2)NC(=O)[C@H](CC(=O)O)NC(=O)[C@H]2CCCN2C(=O)[C@H](CCC(=O)O)NC(=O)[C@@H](NC(=O)[C@H](Cc2ccc(O)cc2)NC(=O)[C@@H](NC(=O)CN2CCC(NC(=O)CN3CCN(CC(=O)O)CCN(CC(=O)O)CCN(CC(=O)O)CC3)CC2)C(C)C)CSCc2cccc(c2)CSC[C@@H](C(N)=O)NC(=O)[C@H](CO)NC(=O)[C@H](Cc2c[nH]c3ccccc23)NC(=O)[C@H]([C@@H](C)O)NC1=O [3BP-4131] ({DOTA}-[X2]VYCE[dP]D[Bip]LTWSC-NH2; linker 4-13 via mXylylene)
100 to 794 nM	CC(C)C[C@@H]1NC(=O)[C@H](Cc2ccc(NC(=O)c3ccncc3)cc2)NC(=O)[C@H](CC(=O)O)NC(=O)[C@H]2CCCN2C(=O)[C@H](CCC(=O)O)NC(=O)[C@@H](NC(=O)[C@H](Cc2ccc(O)cc2)NC(=O)[C@@H](NC(=O)CN2CCC(NC(=O)CN3CCN(CC(=O)O)CCN(CC(=O)O)CCN(CC(=O)O)CC3)CC2)C(C)C)CSCc2cccc(c2)CSC[C@@H](C(N)=O)NC(=O)[C@H](CO)NC(=O)[C@H](Cc2c[nH]c3ccccc23)NC(=O)[C@H]([C@@H](C)O)NC1=O [3BP-4183] ({DOTA}-[X2]VYCE[dP]D[Phe(4-NH2)](Isonicotinoyl)LTWSC-NH2; linker 4-13 via mXylylene)
< 10 nM	CC(C)C[C@@H]1NC(=O)[C@H](C(c2ccccc2)c2ccccc2)NC(=O)[C@H](CC(=O)O)NC(=O)[C@H]2CCCN2C(=O)[C@H](CCC(=O)O)NC(=O)[C@@H](NC(=O)[C@H](Cc2ccc(O)cc2)NC(=O)[C@@H](NC(=O)CN2CCC(NC(=O)CN3CCN(CC(=O)O)CCN(CC(=O)O)CCN(CC(=O)O)CC3)CC2)C(C)C)CSCc2cccc(c2)CSC[C@@H](C(N)=O)NC(=O)[C@H](CO)NC(=O)[C@H](Cc2c[nH]c3ccccc23)NC(=O)[C@H]([C@@H](C)O)NC1=O [3BP-4132] ({DOTA}-[X2]VYCE[dP]D[Dip]LTWSC-NH2; linker 4-13 via mXylylene)
10 to 79.4 nM	CC(C)C[C@]1(C)NC(=O)[C@H](Cc2c[nH]c3ccccc23)NC(=O)[C@H](CC(=O)O)NC(=O)[C@H]2CCCN2C(=O)[C@H](CCC(=O)O)NC(=O)[C@@H](NC(=O)[C@H](Cc2ccc(O)cc2)NC(=O)[C@@H](NC(=O)CN2CCC(NC(=O)CN3CCN(CC(=O)O)CCN(CC(=O)O)CCN(CC(=O)O)CC3)CC2)C(C)C)CSCc2cccc(c2)CSC[C@@H](C(N)=O)NC(=O)[C@H](CO)NC(=O)[C@H](Cc2c[nH]c3ccccc23)NC(=O)[C@H]([C@@H](C)O)NC1=O [3BP-4106] ({DOTA}-[X2]VYCE[dP]DW[αMeL]TWSC-NH2; linker 4-13 via mXylylene)
10 to 79.4 nM	CC(C)C[C@@H]1NC(=O)[C@H](Cc2ccc(C(C)(C)C)cc2)NC(=O)[C@H](CC(=O)O)NC(=O)[C@H]2CCCN2C(=O)[C@H](CCC(=O)O)NC(=O)[C@@H](NC(=O)[C@H](Cc2ccc(O)cc2)NC(=O)[C@@H](NC(=O)CN2CCC(NC(=O)CN3CCN(CC(=O)O)CCN(CC(=O)O)CCN(CC(=O)O)CC3)CC2)C(C)C)CSCc2cccc(c2)CSC[C@@H](C(N)=O)NC(=O)[C@H](CO)NC(=O)[C@H](Cc2c[nH]c3ccccc23)NC(=O)[C@H]([C@@H](C)O)NC1=O [3BP-4160] ({DOTA}-[X2]VYCE[dP]D[Phe(4-tBu)]LTWSC-NH2; linker 4-13 via mXylylene)

Same assay, conditions: FACS binding assay, HT-29 cells, competition with tracer 3BP-4149 (3 nM, Cy5-labeled), 4° C., 1 hour; read-out: pIC50 category (activity) (converted)

IC50	SMILES
100 to 794 nM	CC(C)C[C@@H]1NC(=O)[C@H](Cc2cccc(NC(=O)c3ccc4c(c3)S(=O)(=O)NC(=O)N4)c2)NC(=O)[C@H](CC(=O)O)NC(=O)[C@H]2CCCN2C(=O)[C@H](CCC(=O)O)NC(=O)[C@@H](NC(=O)[C@H](Cc2ccc(O)cc2)NC(=O)[C@@H](NC(=O)CN2CCC(NC(=O)CN3CCN(CC(=O)O)CCN(CC(=O)O)CCN(CC(=O)O)CC3)CC2)C(C)C)CSCc2cccc(c2)CSC[C@@H](C(N)=O)NC(=O)[C@H](CO)NC(=O)[C@H](Cc2c[nH]c3ccccc23)NC(=O)[C@H]([C@@H](C)O)NC1=O [3BP-4415] ({DOTA}-[X2]VYCE[dP]D[X7](X55)LTWSC-NH2; linker 4-13 via mXylylene)
100 to 794 nM	CC(C)C[C@@H]1NC(=O)[C@H](Cc2ccc(NC(=O)c3ccc(S(N)(=O)=O)nc3)cc2)NC(=O)[C@H](CC(=O)O)NC(=O)[C@H]2CCCN2C(=O)[C@H](CCC(=O)O)NC(=O)[C@@H](NC(=O)[C@H](CCC(N)=O)NC(=O)CN2CCN(C(=O)CN3CCN(CC(=O)O)CCN(CC(=O)O)CCN(CC(=O)O)CC3)CC2)CSCc2cccc(c2)CSC[C@@H](C(N)=O)NC(=O)[C@H](CO)NC(=O)[C@H](Cc2c[nH]c3ccccc23)NC(=O)[C@H]([C@@H](C)O)NC1=O [3BP-4481] ({DOTA}-[X1]QCE[dP]D[Phe(4-NH2)](X65)LTWSC-NH2; linker 3-12 via mXylylene)
10 to 79.4 nM	CC(C)C[C@@H]1NC(=O)[C@H](Cc2c[nH]c3ccccc23)NC(=O)[C@H](CC(=O)O)NC(=O)[C@H]2CCCN2C(=O)[C@H](CCC(=O)O)NC(=O)[C@@H]2CSCc3cccc(c3)CSC[C@@H](C(N)=O)NC(=O)[C@H](CNC(=O)C[C@H](NC(=O)COCCOCCNC(=O)CN3CCN(CC(=O)O)CCN(CC(=O)O)CCN(CC(=O)O)CC3)C(=O)N2)NC(=O)[C@H](Cc2c[nH]c3ccccc23)NC(=O)[C@H]([C@@H](C)O)NC1=O [3BP-4262] ({DOTA-AEEA}-DCE[dP]DWLTW[Dap]C-NH2; lactam 1-10; linker 2-11 via mXylylene)
10 to 79.4 nM	CC(C)C[C@@H]1NC(=O)[C@H](Cc2ccc(NC(=O)c3ccc(CS(N)(=O)=O)cc3)cc2)NC(=O)[C@H](CC(=O)O)NC(=O)[C@H]2CCCN2C(=O)[C@H](CCC(=O)O)NC(=O)[C@@H](NC(=O)[C@H](Cc2ccc(O)cc2)NC(=O)[C@@H](NC(=O)CN2CCC(NC(=O)CN3CCN(CC(=O)O)CCN(CC(=O)O)CCN(CC(=O)O)CC3)CC2)C(C)C)CSCc2cccc(c2)CSC[C@@H](C(N)=O)NC(=O)[C@H](CO)NC(=O)[C@H](Cc2c[nH]c3ccccc23)NC(=O)[C@H]([C@@H](C)O)NC1=O [3BP-4399] ({DOTA}-[X2]VYCE[dP]D[Phe(4-NH2)](X36)LTWSC-NH2; linker 4-13 via mXylylene)

Same assay, conditions: FACS competition on HT-29 cells, Tracer ID 3BP-2776 (10 nM, biotin-labeled), 4° C., 1 hour; read-out: pIC50 category (activity) (converted)

IC50	SMILES
< 10 nM	CC(=O)N[C@H](C(=O)N[C@@H](Cc1ccccc1)C(=O)N[C@H]1CSCc2cccc(c2)CSC[C@@H](C(N)=O)NC(=O)[C@H](CCC(=O)NCCCNC(=O)COCCOCCNC(=O)CN2CCN(CC(=O)O)CCN(CC(=O)O)CCN(CC(=O)O)CC2)NC(=O)[C@H](Cc2c[nH]c3ccccc23)NC(=O)[C@H]([C@@H](C)O)NC(=O)[C@H](CC(C)C)NC(=O)[C@H](Cc2c[nH]c3ccccc23)NC(=O)[C@H](CC(=O)O)NC(=O)[C@H]2CCCN2C(=O)[C@H](CCC(=O)O)NC1=O)C(C)C [3BP-3733] (Ac-VFCE[dP]DWLTWE(NH(CH2)3NH(O2Oc(DOTA)))C-NH2; linker 3-12 via mXylylene)
< 10 nM	CC(=O)N[C@H](C(=O)N[C@@H](Cc1ccc(O)cc1)C(=O)N[C@H]1CSCc2cccc(c2)CSC[C@@H](C(N)=O)NC(=O)[C@H](CCC(N)=O)NC(=O)[C@H](Cc2c[nH]c3ccccc23)NC(=O)[C@H]([C@@H](C)O)NC(=O)[C@H](CC(C)C)NC(=O)[C@H](Cc2c[nH]c3ccccc23)NC(=O)[C@H](CC(=O)O)NC(=O)CN(C)C(=O)[C@H](CCC(=O)O)NC1=O)C(C)C [3BP-3060] (Ac-VYCE[Sar]DWLTWQC-NH2; linker 3-12 via mXylylene)
100 to 794 nM	CC(=O)N[C@H](C(=O)N[C@@H](Cc1ccc(O)cc1)C(=O)N[C@H]1CSCc2cccc(c2)CSC[C@@H](C(N)=O)NC(=O)[C@H](CCC(N)=O)NC(=O)[C@H](Cc2c[nH]c3ccccc23)NC(=O)[C@@H](C)NC(=O)[C@H](CC(C)C)NC(=O)[C@H](Cc2c[nH]c3ccccc23)NC(=O)[C@H](CC(=O)O)NC(=O)CN(C)C(=O)[C@H](CCC(=O)O)NC1=O)C(C)C [3BP-3309] (Ac-VYCE[Sar]DWL[dA]WQC-NH2; linker 3-12 via mXylylene)
< 10 nM	CC(=O)N[C@H](C(=O)N[C@@H](Cc1ccc(O)cc1)C(=O)N[C@H]1CSCc2cccc(c2)CSC(C)(C)[C@@H](C(N)=O)NC(=O)[C@H](C)NC(=O)[C@H](Cc2c[nH]c3ccccc23)NC(=O)[C@H]([C@@H](C)O)NC(=O)[C@H](CC(C)(C)C)NC(=O)[C@H](Cc2c[nH]c3ccccc23)NC(=O)[C@H](CC(=O)O)NC(=O)CN(C)C(=O)[C@H](CCC(=O)O)NC1=O)C(C)C [3BP-3501] (Ac-VYCE[Sar]DW[tBuAla]TWA[Pen]-NH2; linker 3-12 via mXylylene)
